# Reference: US8420655B2, “Benzimidazole inhibitors of leukotriene production” (Boehringer Ingelheim International GmbH, priority 2009, dated 2013)
# Target: T1, recombinant human FLAP protein (Homo sapiens, UniProt P20292)
# T1 construct: made in house; host or cells: Sf9 insect cells (membrane fraction, 100,000 x g pellet)
# T1 sequence (P20292 1-161): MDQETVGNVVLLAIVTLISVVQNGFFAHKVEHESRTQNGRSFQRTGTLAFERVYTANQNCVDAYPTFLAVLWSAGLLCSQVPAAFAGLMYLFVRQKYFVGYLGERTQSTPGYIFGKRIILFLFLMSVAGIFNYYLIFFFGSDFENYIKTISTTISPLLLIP
# Assay: FLAP binding assay, displacement of iodinated (125I) FLAP inhibitor, Scintillation Proximity Assay format
# Conditions: [125I]L-691,831 probe, membrane protein from sf9 cells; read-out: hFLAP binding IC50
# Experimental: Compounds are assessed for the ability to bind to FLAP in a binding assay that measures compound-specific displacement of an iodinated (^125I) FLAP inhibitor via a Scintillation Proximity Assay format (adapted from S. Charleson et al., Mol. Pharmacol., 1992, 41, 873-879).
# Cell pellets produced from sf9 insect cells expressing recombinant human FLAP protein are resuspended in buffer A [15 mM Tris-HCl (pH 7.5), 2 mM MgCl2, 0.3 mM EDTA, 1 mM PMSF]. The cells are lysed with a Dounce homogenizer and the material is centrifuged at 10,000×g for 10 minutes. The supernatant is then collected and centrifuged at 100,000×g for 60 minutes. To prepare membrane protein for an assay, an aliquot of the 100,000×g pellet is resuspended in 1 ml of buffer A, Dounce homogenized, and finally subjected to polytron mixing (30 seconds). Membrane protein (25 μl, 5 μg) is mixed with WGA SPA beads (Amersham) and stirred for 1 h. To an assay plate (Perkin Elmer FlexiPlate) is added 25 μl of test compound prepared in Binding buffer [100 mM Tris (pH 7.5), 140 mM NaCl, 5% glycerol, 2 mM EDTA, 0.5 mM TCEP, 0.05% Tween 20], 25 μl of [^125I]L-691,831 (an iodinated analog of MK-591, Charleson et al. Mol. Pharmacol., 41, 873-879, 1992) and finally 50 μl of the bead/protein mixture. (final concentrations: beads, 200 μg/well; protein, 5 μg/well; [^125I] probe, 0 08 nM/well (17 nCi/well). The plates are shaken for 2 h before reading on a Microbeta plate reader. Non-specific binding is determined by the addition of 10 μM cold L-691,831 compound.
row,Structure (SMILES),IC50 [nM]
1,CC(C)(C)n1c(-c2ccccc2-n2ccc(C(F)(F)F)n2)nc2cc(-c3cnc(N)nc3)ccc21 [5-{1-tert-Butyl-2-[2-(3-trifluoromethyl-pyrazol-1-yl)-phenyl]-1H-benzimidazol-5-yl}-pyrimidin-2-ylamine],4.5
2,"Cc1ncnn1-c1ccc(Cl)cc1-c1nc2cc(-c3cnc(N)nc3)ccc2n1C(C)(C)C [5-{1-tert-butyl-2-[5-chloro-2-(5-methyl-1,2,4-triazol-1-yl)-phenyl]-1H-benzimidazol-5-yl}-pyrimidin-2-ylamine]",6.9
3,"CCOCc1ccc(-n2cncn2)c(-c2nc3cc(-c4cnc(N)nc4)ccc3n2C(C)(C)C)c1 [5-[1-tert-Butyl-2-(5-ethoxymethyl-2-[1,2,4]triazol-1-yl-phenyl)-1H-benzoimidazol-5-yl]-pyrimidin-2-ylamine]",10
4,"COc1ccc(-c2nc(C)ns2)c(-c2nc3cc(-c4cnc(N)nc4)ccc3n2C(C)(C)C)c1 [5-{1-tert-Butyl-2-[5-methoxy-2-(3-methyl-1,2,4-thiadiazol-5-yl)-phenyl]-1H-benzimidazol-5-yl}-pyrimidin-2-ylamine]",4.3
5,"CCNC(=O)c1ncn(-c2ccc(C#N)cc2-c2nc3cc(-c4cnc(N)nc4)ccc3n2C(C)(C)C)n1 [1-{2-[5-(2-Amino-pyrimidin-5-yl)-1-tert-butyl-1H-benzoimidazol-2-yl]-4-cyano-phenyl}-1H-[1,2,4]triazole-3-carboxylic acid ethylamide]",29.5
6,"CC(C)(C)n1c(-c2cc(Cl)ccc2-n2cncn2)nc2cc(-c3cnc(N)nc3)ccc21 [5-[1-tert-Butyl-2-(5-chloro-2-1,2,4-triazol-1-yl-phenyl)-1H-benzimidazol-5-yl]-pyrimidin-2-ylamine]",3
7,"CC(C)(C)n1c(-c2ccccc2-c2ncn(CCO)n2)nc2cc(-c3cnc(N)nc3)ccc21 [2-(3-{2-[5-(2-Amino-pyrimidin-5-yl)-1-tert-butyl-1H-benzoimidazol-2-yl]-phenyl}-[1,2,4]triazol-1-yl)-ethanol]",5.8
8,"CCNC(=O)Oc1ccc(-n2cncn2)c(-c2nc3cc(-c4cnc(N)nc4)ccc3n2C(C)(C)C)c1 [Ethyl-carbamic acid 3-[5-(2-amino-pyrimidin-5-yl)-1-tert-butyl-1H-benzimidazol-2-yl]-4-1,2,4-triazol-1-yl-phenyl ester]",1.1
9,"CCCCC/C(=C\C(=O)O)c1ccc(-n2cncn2)c(-c2nc3cc(-c4cnc(N)nc4)ccc3n2C(C)(C)C)c1 [(E)-3-{3-[5-(2-Amino-pyrimidin-5-yl)-1-tert-butyl-1H-benzoimidazol-2-yl]-4-[1,2,4]triazol-1-yl-phenyl}-oct-2-enoic acid]",6
10,"COCc1ccc(-n2cncn2)c(-c2nc3cc(-c4cnc(N)nc4)ccc3n2C(C)(C)C)c1 [5-[1-tert-Butyl-2-(5-methoxymethyl-2-[1,2,4]triazol-1-yl-phenyl)-1H-benzoimidazol-5-yl]-pyrimidin-2-ylamine]",13.9
11,"COCCn1cnc(-c2ccccc2-c2nc3cc(-c4cnc(N)nc4)ccc3n2C(C)(C)C)n1 [5-(1-tert-Butyl-2-{2-[1-(2-methoxy-ethyl)-1H-[1,2,4]triazol-3-yl]-phenyl}-1H-benzoimidazol-5-yl)-pyrimidin-2-ylamine]",3.3
12,"CN(C)C(=O)Oc1ccc(-n2cncn2)c(-c2nc3cc(-c4cnc(N)nc4)ccc3n2C(C)(C)C)c1 [Dimethyl-carbamic acid 3-[5-(2-amino-pyrimidin-5-yl)-1-tert-butyl-1H-benzimidazol-2-yl]-4-1,2,4-triazol-1-yl-phenyl ester]",15.5
13,CC(C)(C)n1c(-c2ccccc2-n2cc(Cl)cn2)nc2cc(-c3cnc(N)nc3)ccc21 [5-{1-tert-Butyl-2-[2-(4-chloro-pyrazol-1-yl)-phenyl]-1H-benzimidazol-5-yl}-pyrimidin-2-ylamine],4.1
14,"Cc1ncn(-c2ccc(C#N)cc2-c2nc3cc(-c4cnc(N)nc4)ccc3n2C(C)(C)C)n1 [3-[5-(2-Amino-pyrimidin-5-yl)-1-tert-butyl-1H-benzimidazol-2-yl]-4-(3-methyl-1,2,4-triazol-1-yl)-benzonitrile]",3

# Second part, the molecule after the results:
row,IC50 [nM],Structure (SMILES)
1,1.8,"Cc1ccc(-c2nc(C)no2)c(-c2nc3cc(-c4cnc(N)nc4)ccc3n2C(C)(C)C)c1 [5-{1-tert-Butyl-2-[5-methyl-2-(3-methyl-1,2,4-oxadiazol-5-yl)-phenyl]-1H-benzimidazol-5-yl}-pyrimidin-2-ylamine]"
2,2.9,"COc1ccc(-c2nc3cc(-c4cnc(N)nc4)ccc3n2C(C)(C)C)c(-n2cncn2)c1 [5-[1-tert-Butyl-2-(4-methoxy-2-1,2,4-triazol-1-yl-phenyl)-1H-benzimidazol-5-yl]-pyrimidin-2-ylamine]"
3,1.1,Cc1ccn(-c2ccccc2-c2nc3cc(-c4cnc(N)nc4)ccc3n2C(C)(C)C)n1 [5-{1-tert-Butyl-2-[2-(3-methyl-pyrazol-1-yl)-phenyl]-1H-benzimidazol-5-yl}-pyrimidin-2-ylamine]
4,2.4,"Cn1cc(-c2ccc(-n3cncn3)c(-c3nc4cc(-c5cnc(N)nc5)ccc4n3C(C)(C)C)c2)cn1 [5-{1-tert-Butyl-2-[5-(1-methyl-1H-pyrazol-4-yl)-2-[1,2,4]triazol-1-yl-phenyl]-1H-benzoimidazol-5-yl}-pyrimidin-2-ylamine]"
5,1.3,"C=Cc1ccc(-n2cncn2)c(-c2nc3cc(-c4cnc(N)nc4)ccc3n2C(C)(C)C)c1 [5-[1-tert-Butyl-2-(2-1,2,4-triazol-1-yl-5-vinyl-phenyl)-1H-benzimidazol-5-yl]-pyrimidin-2-ylamine]"
6,1.2,"Cc1noc(-c2ccccc2-c2nc3cc(-c4cnc5[nH]ccc5c4)ccc3n2C(C)(C)C)n1 [1-tert-Butyl-2-[2-(3-methyl-1,2,4-oxadiazol-5-yl)-phenyl]-5-(1H-pyrrolo[2,3-b]pyridin-5-yl)-1H-benzimidazole]"
7,2.4,"CCc1ccc(-n2cncn2)c(-c2nc3cc(-c4cnc(N)nc4)ccc3n2C(C)(C)C)c1 [5-[1-tert-Butyl-2-(5-ethyl-2-1,2,4-triazol-1-yl-phenyl)-1H-benzimidazol-5-yl]-pyrimidin-2-ylamine]"
8,2.7,"COC(=O)c1ccc(-n2cncn2)c(-c2nc3cc(-c4cnc(N)nc4)ccc3n2C(C)(C)C)c1 [3-[5-(2-Amino-pyrimidin-5-yl)-1-tert-butyl-1H-benzoimidazol-2-yl]-4-[1,2,4]triazol-1-yl-benzoic acid methyl ester]"
9,1.7,"CC(C)(C)n1c(-c2ccc(Cl)cc2-n2cncn2)nc2cc(-c3cnc(N)nc3)ccc21 [5-[1-tert-Butyl-2-(4-chloro-2-1,2,4-triazol-1-yl-phenyl)-1H-benzimidazol-5-yl]-pyrimidin-2-ylamine]"
10,1.1,"COc1ccc(-n2cccn2)c(-c2nc3cc(-c4cnc5[nH]ccc5c4)ccc3n2C(C)(C)C)c1 [1-tert-Butyl-2-(5-methoxy-2-pyrazol-1-yl-phenyl)-5-(1H-pyrrolo[2,3-b]pyridin-5-yl)-1H-benzimidazole]"
11,1.6,Cc1ccc(-n2cncn2)c(-c2nc3cc(-c4cnc(N)nc4)ccc3n2C(C)(C)C)c1
12,2.5,"Cc1nc(C)n(-c2ccc(C#N)cc2-c2nc3cc(-c4cnc(N)nc4)ccc3n2C(C)(C)C)n1 [3-[5-(2-Amino-pyrimidin-5-yl)-1-tert-butyl-1H-benzoimidazol-2-yl]-4-(3,5-dimethyl-[1,2,4]triazol-1-yl)-benzonitrile]"
